Results published in patent publication US8993574B2, “Pyrrole antifungal agents” (F2G Ltd, priority 2008, dated 2015).
Values after ≈ are worked out from the molar mass of the structure shown.

Legend:
Assay type in all cases: cell-based
[1] = system: Aspergillus terreus AT49; experiment: MIC, RPMI medium; conditions: Aspergillus terreus, AT49, MIC banded into grades, read-out: MIC grade, A. terreus 49
Outline: (§1)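 RPMI (2% glucose, 0.135 M MOPS, pH 7.0) microdilution; drug 50-0.05 mg/L doubling series; inoculum 1−2×10^4 cfu/mL; 24-48 h, 35° C; OD485; MIC = lowest conc. with >80% inhibition vs drug-free control.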

[2] = system: Aspergillus niger; experiment: MIC, RPMI medium; conditions: Aspergillus niger, MIC banded into grades, read-out: MIC grade, A. niger
Outline: as §1

[3] = system: Aspergillus fumigatus AF293; experiment: MIC, RPMI medium; conditions: Aspergillus fumigatus, AF293, MIC banded into grades, read-out: MIC grade, A. fumigatus
Outline: as §1

[4] = system: Aspergillus fumigatus AF210; experiment: MIC, RPMI medium; conditions: Aspergillus fumigatus, AF210, MIC banded into grades, read-out: MIC grade, A. fumigatus 210
Outline: as §1

[5] = system: Aspergillus flavus; experiment: MIC, RPMI medium; conditions: Aspergillus flavus, MIC banded into grades, read-out: MIC grade, A. flavus
Outline: as §1

[6] = system: Aspergillus terreus AT4; experiment: MIC, RPMI medium; conditions: Aspergillus terreus, AT4, MIC banded into grades, read-out: MIC grade, A. terreus
Outline: as §1

[7] = system: Aspergillus terreus AT49; experiment: MIC, YAG medium; conditions: Aspergillus terreus, 24 h at 35° C, MIC banded into grades, read-out: MIC grade, A. terreus 49
Outline: (§2)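 Endpoint is growth at OD 485 nm after 24 h at 35° C, with MIC defined as the lowest drug level giving >70% inhibition relative to untreated wells and recorded in mg/L. Tests ran in YAG broth with 1−2×10^4 cfu/mL spore inocula from Sabouraud-grown cultures. Drug ranges were 50-0.05 mg/L, repeated at 0.5-0.0005 mg/L when needed.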

[8] = system: Aspergillus niger; experiment: MIC, YAG medium; conditions: Aspergillus niger, 24 h at 35° C, MIC banded into grades, read-out: MIC grade, A. niger
Outline: as §2

[9] = system: Aspergillus fumigatus AF293; experiment: MIC, YAG medium; conditions: Aspergillus fumigatus, 24 h at 35° C, MIC banded into grades, read-out: MIC grade, A. fumigatus
Outline: as §2

[10] = system: Aspergillus fumigatus AF210; experiment: MIC, YAG medium; conditions: Aspergillus fumigatus, 24 h at 35° C, MIC banded into grades, read-out: MIC grade, A. fumigatus 210
Outline: as §2

[11] = system: Aspergillus flavus; experiment: MIC, YAG medium; conditions: Aspergillus flavus, 24 h, 24 h at 35° C, MIC banded into grades, read-out: MIC grade, A. flavus
Outline: as §2

[12] = system: Aspergillus terreus AT4; experiment: MIC, YAG medium; conditions: Aspergillus terreus, 24 h at 35° C, MIC banded into grades, read-out: MIC grade, A. terreus
Outline: as §2

| Structure (SMILES) | MIC [1] | MIC [2] | MIC [3] | MIC [4] | MIC [5] | MIC [6] | MIC [7] | MIC [8] | MIC [9] | MIC [10] | MIC [11] | MIC [12] |
| --- | --- | --- | --- | --- | --- | --- | --- | --- | --- | --- | --- | --- |
| COCCn1c(C)cc(-c2ccccc2)c1C(=O)C(=O)Nc1cccc2cnccc12 [Example 30, N-Isoquinolin-5-yl-2-[1-(2-methoxy-ethyl)-5-methyl-3-phenyl-1H-pyrrol-2-yl]-2-oxo-acetamide] | > 10 µg/mL | > 10 µg/mL | > 10 µg/mL | > 10 µg/mL | > 10 µg/mL | > 10 µg/mL | 1 to 10 µg/mL (≈ 2.42 to 24.2 µM) | > 10 µg/mL | 1 to 10 µg/mL (≈ 2.42 to 24.2 µM) | 1 to 10 µg/mL (≈ 2.42 to 24.2 µM) | 1 to 10 µg/mL (≈ 2.42 to 24.2 µM) | 1 to 10 µg/mL (≈ 2.42 to 24.2 µM) |
| Cc1cc(-c2ccccc2)c(C(=O)C(=O)Nc2ccc3ccccc3c2)n1C [Example 44, 2-(1,5-Dimethyl-3-phenyl-1H-pyrrol-2-yl)-N-naphthalen-2-yl-2-oxo-acetamide] | < 1 µg/mL | < 1 µg/mL | < 1 µg/mL | < 1 µg/mL | < 1 µg/mL | < 1 µg/mL | < 1 µg/mL | < 1 µg/mL | < 1 µg/mL | < 1 µg/mL | < 1 µg/mL | < 1 µg/mL |
| Cc1cc(C)nc(N2CCN(c3ccc(NC(=O)C(=O)c4c(-c5ccccc5)cc(C)n4Cc4coc(C)n4)cc3)CC2)c1 [Example 146, N-{4-[4-(4,6-Dimethyl-pyridin-2-yl)-piperazin-1-yl]-phenyl}-2-[5-methyl-1-(2-methyl-oxazol-4-ylmethyl)-3-phenyl-1H-pyrrol-2-yl]-2-oxo-acetamide] | > 10 µg/mL | 1 to 10 µg/mL (≈ 1.7 to 17 µM) | < 1 µg/mL | > 10 µg/mL | > 10 µg/mL | > 10 µg/mL | 1 to 10 µg/mL (≈ 1.7 to 17 µM) | 1 to 10 µg/mL (≈ 1.7 to 17 µM) | < 1 µg/mL | < 1 µg/mL | 1 to 10 µg/mL (≈ 1.7 to 17 µM) | 1 to 10 µg/mL (≈ 1.7 to 17 µM) |
| Cc1cc(C)nc(N2CCN(c3ccc(NC(=O)C(=O)c4c(-c5ccccc5)ccn4C)cc3)CC2)c1 [Example 45, N-{4-[4-(4,6-Dimethyl-pyridin-2-yl)-piperazin-1-yl]-phenyl}-2-(1-methyl-3-phenyl-1H-pyrrol-2-yl)-2-oxo-acetamide] | < 1 µg/mL | < 1 µg/mL | < 1 µg/mL | < 1 µg/mL | < 1 µg/mL | < 1 µg/mL | < 1 µg/mL | < 1 µg/mL | < 1 µg/mL | < 1 µg/mL | < 1 µg/mL | < 1 µg/mL |
| Cc1cc(-c2ccccc2)c(C(=O)C(=O)Nc2cccc3ccccc23)n1C [Example 16, 2-(1,5-Dimethyl-3-phenyl-1H-pyrrol-2-yl)-N-naphthalen-1-yl-2-oxo-acetamide] | < 1 µg/mL | < 1 µg/mL | < 1 µg/mL | 1 to 10 µg/mL (≈ 2.71 to 27.1 µM) | < 1 µg/mL | < 1 µg/mL | < 1 µg/mL | < 1 µg/mL | < 1 µg/mL | < 1 µg/mL | < 1 µg/mL | < 1 µg/mL |
| CCCNC(=O)C(=O)c1c(-c2ccccc2)ccn1CCOC [Example 82, 2-[1-(2-Methoxy-ethyl)-3-phenyl-1H-pyrrol-2-yl]-2-oxo-N-propyl-acetamide] | > 10 µg/mL | > 10 µg/mL | > 10 µg/mL | > 10 µg/mL | > 10 µg/mL | > 10 µg/mL | 1 to 10 µg/mL (≈ 3.18 to 31.8 µM) | > 10 µg/mL | 1 to 10 µg/mL (≈ 3.18 to 31.8 µM) | 1 to 10 µg/mL (≈ 3.18 to 31.8 µM) | > 10 µg/mL | 1 to 10 µg/mL (≈ 3.18 to 31.8 µM) |
| Cc1cc(C)nc(N2CCN(c3ccc(NC(=O)C(=O)c4ccc(C)n4-c4ccccc4)cc3)CC2)c1 [Example 3, N-{4-[4-(4,6-Dimethyl-pyridin-2-yl)-piperazin-1-yl]-phenyl}-2-(5-methyl-1-phenyl-1H-pyrrol-2-yl)-2-oxo-acetamide] | 1 to 10 µg/mL (≈ 2.03 to 20.3 µM) | > 10 µg/mL | > 10 µg/mL | > 10 µg/mL | > 10 µg/mL | 1 to 10 µg/mL (≈ 2.03 to 20.3 µM) | < 1 µg/mL | > 10 µg/mL | > 10 µg/mL | 1 to 10 µg/mL (≈ 2.03 to 20.3 µM) | 1 to 10 µg/mL (≈ 2.03 to 20.3 µM) | < 1 µg/mL |

Continued, values first:

| MIC [1] | MIC [2] | MIC [3] | MIC [4] | MIC [5] | MIC [6] | MIC [7] | MIC [8] | MIC [9] | MIC [10] | MIC [11] | MIC [12] | Structure (SMILES) |
| --- | --- | --- | --- | --- | --- | --- | --- | --- | --- | --- | --- | --- |
| < 1 µg/mL | < 1 µg/mL | < 1 µg/mL | 1 to 10 µg/mL (≈ 2.48 to 24.8 µM) | < 1 µg/mL | < 1 µg/mL | < 1 µg/mL | < 1 µg/mL | < 1 µg/mL | 1 to 10 µg/mL (≈ 2.48 to 24.8 µM) | < 1 µg/mL | < 1 µg/mL | Cc1cc(-c2ccccc2)c(C(=O)C(=O)Nc2ccc(-c3ncco3)cc2F)n1C [Example 100, 2-(1,5-Dimethyl-3-phenyl-1H-pyrrol-2-yl)-N-[2-fluoro-4-oxazol-2-yl-phenyl)-2-oxo-acetamide] |
| < 1 µg/mL | < 1 µg/mL | < 1 µg/mL | < 1 µg/mL | < 1 µg/mL | < 1 µg/mL | < 1 µg/mL | < 1 µg/mL | < 1 µg/mL | < 1 µg/mL | < 1 µg/mL | < 1 µg/mL | Cc1cc(C)nc(N2CCN(c3ccc(NC(=O)C(=O)c4c(-c5ccccc5)cc(C)n4C)cc3Cl)CC2)c1 [Example 11, N-{3-Chloro-4-[4-(4,6-dimethyl-pyridin-2-yl)-piperazin-1-yl]-phenyl}-2-(1,5-dimethyl-3-phenyl-1H-pyrrol-2-yl)-2-oxo-acetamide] |
| < 1 µg/mL | < 1 µg/mL | < 1 µg/mL | < 1 µg/mL | < 1 µg/mL | < 1 µg/mL | < 1 µg/mL | < 1 µg/mL | < 1 µg/mL | < 1 µg/mL | < 1 µg/mL | < 1 µg/mL | Cc1cc(-c2ccccc2)c(C(=O)C(=O)Nc2ccc(N3CCN(CC(C)(C)C)CC3)cc2F)n1C [Example 112, 2-(1,5-Dimethyl-3-phenyl-1H-pyrrol-2-yl)-N-{4-[4-(2,2-dimethyl-propyl)-piperazin-1-yl]-2-fluoro-phenyl}-2-oxo-acetamide] |
| > 10 µg/mL | > 10 µg/mL | 1 to 10 µg/mL (≈ 2.42 to 24.2 µM) | > 10 µg/mL | > 10 µg/mL | > 10 µg/mL | > 10 µg/mL | > 10 µg/mL | 1 to 10 µg/mL (≈ 2.42 to 24.2 µM) | 1 to 10 µg/mL (≈ 2.42 to 24.2 µM) | > 10 µg/mL | > 10 µg/mL | COCCn1c(C)cc(-c2ccccc2)c1C(=O)C(=O)Nc1cccc2ccncc12 [Example 42, N-Isoquinolin-8-yl-2-[1-(2-methoxy-ethyl)-5-methyl-3-phenyl-1H-pyrrol-2-yl]-2-oxo-acetamide] |
| 1 to 10 µg/mL (≈ 1.76 to 17.6 µM) | < 1 µg/mL | < 1 µg/mL | < 1 µg/mL | < 1 µg/mL | < 1 µg/mL | < 1 µg/mL | < 1 µg/mL | < 1 µg/mL | < 1 µg/mL | < 1 µg/mL | < 1 µg/mL | COCCn1c(C)cc(-c2ccccc2)c1C(=O)C(=O)Nc1ccc(N2CCN(c3cc(C)cc(C)n3)CC2)cc1F [Example 123, N-{4-[4-(4,6-Dimethyl-pyridin-2-yl)-piperazin-1-yl]-2-fluoro-phenyl}-2-[1-(2-methoxy-ethyl)-5-methyl-3-phenyl-1H-pyrrol-2-yl)-2-oxo-acetamide] |
| 1 to 10 µg/mL (≈ 2.71 to 27.1 µM) | 1 to 10 µg/mL (≈ 2.71 to 27.1 µM) | > 10 µg/mL | > 10 µg/mL | 1 to 10 µg/mL (≈ 2.71 to 27.1 µM) | 1 to 10 µg/mL (≈ 2.71 to 27.1 µM) | < 1 µg/mL | 1 to 10 µg/mL (≈ 2.71 to 27.1 µM) | 1 to 10 µg/mL (≈ 2.71 to 27.1 µM) | 1 to 10 µg/mL (≈ 2.71 to 27.1 µM) | < 1 µg/mL | < 1 µg/mL | Cc1cc(-c2ccccc2)c(C(=O)C(=O)Nc2cccc3ncccc23)n1C [Example 32, 2-(1,5-Dimethyl-3-phenyl-1H-pyrrol-2-yl)-2-oxo-N-quinolin-5-yl-acetamide] |
| < 1 µg/mL | < 1 µg/mL | < 1 µg/mL | < 1 µg/mL | < 1 µg/mL | < 1 µg/mL | < 1 µg/mL | < 1 µg/mL | < 1 µg/mL | < 1 µg/mL | < 1 µg/mL | < 1 µg/mL | COCn1c(C)cc(-c2ccccc2)c1C(=O)C(=O)Nc1ccc(N2CCN(c3cc(C)cc(C)n3)CC2)cc1 [Example 62, N-{4-[4-(4,6-Dimethyl-pyridin-2-yl)-piperazin-1-yl]-phenyl}-2-(1-methoxymethyl-5-methyl-3-phenyl-1H-pyrrol-2-yl)-2-oxo-acetamide] |
